Data: patent US10071994B2, “N-sulfonyl homoserine lactone derivatives, preparation method and use thereof” (priority 2014, dated 2018)

Each compound was assayed on C. violaceum CV026 (assay: Measurement of IC50 of compounds having an inhibitory effect on C. violaceum quorum sensing (purple pigment absorbance at 585 nm)). Conditions: Chromobacterium violaceum, CV026, read-out: IC50 of compounds having bacterial quorum sensing inhibitory activity.
Type: cell-based
Protocol: 2. Measurement of IC50 of Compounds Having an Inhibitory Effect on C. violaceum Quorum Sensing
2.1 The wells of a 12-well plate were marked as initial concentration group, 2, 4, 8, 16, 32, 64, 128, and 256 fold diluted group, DMSO group, and a blank control group from left to right and from up to bottom, respectively.
2.2 The monoclonal C. violaceum CV026 grew on LB solid plate was cultured to exponential phase in a 5 ml fresh LB liquid culture medium, and 50 μl was then taken for seeding in a 5 ml LB culture medium, and cultured until the optical density OD value was about 1.0. The culture was then mixed homogeneously with LB culture medium at a ratio of 1:9 (at an OD of about 0.15), and added to a 12-well plate in an amount of 2 ml/well.
2.3 The compounds having quorum sensing inhibitory activity in preliminarily screening were dissolved in DMSO (at a concentration of 0.065M), respectively, and then 10 μl was taken into 10 μl DMSO solution for 2-fold dilution, and so on. Each compound was gradiently diluted to a highest fold of 256 (gradient dilution of 2, 4, 8, 16, 32, 64, 128, 256 fold).
2.4 To each well, 15 μl 1000-fold diluted inducer C6-HSL (initial concentration of 0.125M) and 8 μl compound solution at each diluted gradient was added; to the DMSO group, 8 μl DMSO was added; to the blank control group, 8 μl LB culture medium was added. Finally, it was ensured that 2 ml culture in each of the 12-well plate was mixed homogeneously.
2.5 The 12-well plate was placed in a 30° C. shaker at 130 rpm and cultured for 10-12 h.
2.6 After the culture was finished, 1 ml culture was taken from each well and put in a 1.5 ml EP tube and then centrifuged at 12000 rpm for 10 mins. The supernatant of the culture was sucked out, and 500 μl DMSO was added to each EP tube to dissolve the purple pigment in the culture. […] 200 μl supernatant pigment was put in a 96-well culture plate, and measured for absorbance value at 585 nm by a Microplate Reader. The absorbance value and the corresponding concentration were plotted to get the IC50 value.

| SMILES | IC50 |
| --- | --- |
| O=C(Nc1ccc(S(=O)(=O)N[C@H]2CCOC2=O)cc1)c1sccc1Cl [Compound 9, (s)-3-chloro-N-(4-(N-(2-oxotetrahydrofuran-3-yl)sulfamoyl)phenyl)thiophene-2-carb oxamide] | 9.19 ± 0.34 µM |
| O=C(Nc1ccc(S(=O)(=O)N[C@H]2CCOC2=O)cc1)c1sccc1Br [Compound 10, (s)-3-bromo-N-(4-(N-(2-oxotetrahydrofuran-3-yl)sulfamoyl)phenyl)thiophene-2-carboxamide] | 13.5 ± 0.54 µM |
| Cc1ccsc1C(=O)Nc1ccc(S(=O)(=O)N[C@H]2CCOC2=O)cc1 [Compound 8, (s)-3-methyl-N-(4-(N-(2-oxotetrahydrofuran-3-yl)sulfamoyl)phenyl)thiophene-2-carboxamide] | 69.2 ± 1.42 µM |

The compounds below were run on C. violaceum CV026 (assay: Preliminary screening of bacterial quorum sensing regulatory (agonistic/inhibitory) activity on LB plate). Conditions: 1 μl of 0.065M DMSO solution spotted on LB plate with C. violaceum CV026, 30° C., 16-18 h; agonist: purple induced; inhibitor: white circle in presence of inducer C6-HSL.
Type: cell-based, Chromobacterium violaceum
Protocol: 1.1 Preparation work: compounds to be tested (Compounds 1-32 prepared in Example 1-32 and Intermediates 1-3) were weighed and then separately dissolved in 200 μl DMSO (dimethyl sulfoxide) to prepare a solution at a concentration of 0.065M. 5.0 mg inducer, N-hexanoyl homoserine lactone (C6—HSL, purchased from Sigma Company) was weighed and dissolved in 200 μl DMSO (at a concentration of 0.125M), the compounds and the inducer were all stored at 4° C. for further use. C. violaceum CV026 (donated by Professor McLean J C from Texas State University, the bacterium is the Tn-5 mutant of the wild type Chromobacterium violaceum ATCC31532; see Latifi, A., et al., Mol. Microbiol, 17, 333-343(1995) and Winson, M. K., et al., Proc. Natl. Acad. Sci. USA, 92, 9427-9431(1995)) was cultured under shaking in a shaker at 30° C., 200 rpm.
1.2 Method for preliminary screening of compounds having agonistic activity: 400 μl C. violaceum CV026 was added to 5 ml melted semi-solid LB culture medium (1% tryptone, 1% NaCl, and 0.5% yeast extract), and mixed homogeneously; the mixed culture medium was poured into a solid LB plate; when the mixed culture medium was solidified on the plate; 1 μl sample of the dissolved compound to be tested (Compounds 1-32 in Examples 1-32) was spotted on the plate; when the sample was dried in air, the plate was put in a 30° C. oven upside down and cultured for a period of 16-18 h. The agonistic activity of the compound was determined depending on whether purple strain was induced for C. violaceum CV026 on LB plate as well as the density of purple strain.
1.3 Method for preliminary screening of compounds having inhibitory activity: the inducer C6-HSL was diluted gradiently to 1000 times by means of 2-fold dilution; 15 μl of the diluted inducer and 400 μl C. violaceum CV026 in exponential phase were mixed homogeneously and then added to a 5 ml melted semi-solid LB culture medium; the mixture of inducer, C. violaceum, and semi-solid LB culture medium were poured onto a solid LB plate; when the mixture was solidified on the plate, 1 μl sample of the dissolved compound to be tested (Compounds 1-32 in Examples 1-32 and Intermediates 1-3) was spotted on the plate; when the sample was dried in air, the plate was put in a 30° C. oven upside down and was cultured for a period of 16-18 h. The inhibitory activity of a compound was preliminary determined depending on the size of the white circle appeared after C. violaceum CV026 was inhibited on LB plate.
It is found, after preliminary screening, that 17 compounds according to the invention have bacterial quorum sensing regulatory activity, and the screening result was shown in Table 1.

| SMILES | Regulatory activity (bacterial quorum sensing) |
| --- | --- |
| O=C(Nc1ccc(S(=O)(=O)N[C@H]2CCOC2=O)cc1)c1ccc([N+](=O)[O-])o1 [Compound 13, (s)-5-nitro-N-(4-(N-(2-oxotetrahydrofuran-3-yl)sulfamoyl)phenyl)furan-2-carboxamide] | − |
| O=C(Nc1ccc(S(=O)(=O)N[C@H]2CCOC2=O)cc1)c1sccc1Cl [Compound 9, (s)-3-chloro-N-(4-(N-(2-oxotetrahydrofuran-3-yl)sulfamoyl)phenyl)thiophene-2-carb oxamide] | − |
| Cc1occc1C(=O)Nc1ccc(S(=O)(=O)N[C@H]2CCOC2=O)cc1 [Compound 15, (s)-2-methyl-N-(4-(N-(2-oxotetrahydrofuran-3-yl)sulfamoyl)phenyl)furan-3-carboxamide] | − |
| CC(=O)Nc1ccc(S(=O)(=O)N[C@H]2CCOC2=O)cc1 [Intermediate 2, (s)-N-(4-(N-(2-oxotetrahydrofuran-3-yl)sulfamoyl)phenyl)acetamide] | − |
| O=C(Nc1ccc(S(=O)(=O)N[C@H]2CCOC2=O)cc1)c1cccs1 [Compound 1, (s)-N-(4-(N-(2-oxotetrahydrofuran-3-yl)sulfamoyl)phenyl)thiophene-2-carboxamide] | − |
| O=C(Nc1ccc(S(=O)(=O)NC2CCOC2=O)cc1)c1ccc[nH]1 (stereo not shown) [Compound 17, (s)-1H—N-(4-(N-(2-oxotetrahydrofuran-3-yl)sulfamoyl)phenyl)pyrrole-2-carboxamide] | − |
| Br.NC1CCOC1=O (stereo not shown) [Intermediate 1, (L)-homoserine lactone hydrobromide] | + |
| O=C(Nc1ccc(S(=O)(=O)N[C@H]2CCOC2=O)cc1)c1cc(Br)cs1 [Compound 6, (s)-4-bromo-N-(4-(N-(2-oxotetrahydrofuran-3-yl)sulfamoyl)phenyl)thiophene-2-carb oxamide] | − |
| Cc1csc(C(=O)Nc2ccc(S(=O)(=O)N[C@H]3CCOC3=O)cc2)c1 [Compound 7, (s)-4-methyl-N-(4-(N-(2-oxotetrahydrofuran-3-yl)sulfamoyl)phenyl)thiophene-2-carboxamide] | − |
| O=C(Nc1ccc(S(=O)(=O)N[C@H]2CCOC2=O)cc1)c1ccc(Br)s1 [Compound 4, (s)-5-bromo-N-(4-(N-(2-oxotetrahydrofuran-3-yl)sulfamoyl)phenyl)thiophene-2-carb oxamide] | − |
| O=C(Nc1ccc(S(=O)(=O)N[C@H]2CCOC2=O)cc1)c1sccc1Br [Compound 10, (s)-3-bromo-N-(4-(N-(2-oxotetrahydrofuran-3-yl)sulfamoyl)phenyl)thiophene-2-carboxamide] | − |
| O=C(Nc1ccc(S(=O)(=O)N[C@H]2CCOC2=O)cc1)c1ccco1 [Compound 11, (s)-N-(4-(N-(2-oxotetrahydrofuran-3-yl)sulfamoyl)phenyl)furan-2-carboxamide] | ± |
| O=C(Cc1ccc(F)cc1)Nc1ccc(S(=O)(=O)N[C@H]2CCOC2=O)cc1 [Compound 20, (S)-4-fluoro-N-(4-(N-(2-oxotetrahydrofuran-3-yl)sulfamoyl)phenyl)benzeneacetamide] | − |
| Cc1ccsc1C(=O)Nc1ccc(S(=O)(=O)N[C@H]2CCOC2=O)cc1 [Compound 8, (s)-3-methyl-N-(4-(N-(2-oxotetrahydrofuran-3-yl)sulfamoyl)phenyl)thiophene-2-carboxamide] | − |
| O=C(Cc1ccc(Cl)cc1)Nc1ccc(S(=O)(=O)N[C@H]2CCOC2=O)cc1 [Compound 21, (S)-4-chloro-N-(4-(N-(2-oxotetrahydrofuran-3-yl)sulfamoyl)phenyl)benzeneacetamide] | − |
| O=C(Cc1ccccc1F)Nc1ccc(S(=O)(=O)N[C@H]2CCOC2=O)cc1 [Compound 27, (S)-2-fluoro-N-(4-(N-(2-oxotetrahydrofuran-3-yl)sulfamoyl)phenyl)benzeneacetamide] | + |
| O=C(Nc1ccc(S(=O)(=O)N[C@H]2CCOC2=O)cc1)c1ccsc1 [Compound 2, (s)-N-(4-(N-(2-oxotetrahydrofuran-3-yl)sulfamoyl)phenyl)thiophene-3-carboxamide] | − |
| O=C(Nc1ccc(S(=O)(=O)N[C@H]2CCOC2=O)cc1)c1ccoc1 [Compound 12, (s)-N-(4-(N-(2-oxotetrahydrofuran-3-yl)sulfamoyl)phenyl)furan-3-carboxamide] | − |
| O=C(Nc1ccc(S(=O)(=O)N[C@H]2CCOC2=O)cc1)c1ccc(Cl)s1 [Compound 3, (s)-5-chloro-N-(4-(N-(2-oxotetrahydrofuran-3-yl)sulfamoyl)phenyl)thiophene-2-carb oxamide] | − |
